Literature values as cited in US20120040944A1 (APEX LABORATORIES PRIVATE LIMITED, priority 2009, published 2012).

Key:
CYP3A4 isozyme = target: T1, CYP3A4 isozyme (Homo sapiens, UniProt P08684); settings: liver
T1 construct: host or cells: liver

[1] = not given; remark: listed apart in the source

T1 sequence (P08684 whole entry): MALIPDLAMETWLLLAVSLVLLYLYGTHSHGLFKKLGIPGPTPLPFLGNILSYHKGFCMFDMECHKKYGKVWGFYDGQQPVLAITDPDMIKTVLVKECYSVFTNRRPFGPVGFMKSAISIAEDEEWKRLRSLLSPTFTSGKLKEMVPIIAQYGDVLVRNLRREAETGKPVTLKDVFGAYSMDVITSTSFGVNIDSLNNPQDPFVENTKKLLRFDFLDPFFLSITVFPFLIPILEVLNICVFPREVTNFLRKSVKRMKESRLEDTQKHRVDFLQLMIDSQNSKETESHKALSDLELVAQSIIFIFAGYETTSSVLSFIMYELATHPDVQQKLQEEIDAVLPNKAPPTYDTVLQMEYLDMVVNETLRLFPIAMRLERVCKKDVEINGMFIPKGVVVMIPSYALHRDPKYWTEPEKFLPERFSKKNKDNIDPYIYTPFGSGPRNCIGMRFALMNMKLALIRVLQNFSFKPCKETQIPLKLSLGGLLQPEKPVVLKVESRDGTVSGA

Q: Which metabolism (CYP3A4 isozyme) does the source give for `C[C@@H]1C[C@H]2[C@@H]3CCC4=CC(=O)C=C[C@]4(C)[C@@]3(Cl)[C@@H](O)C[C@]2(C)[C@@]1(OC(=O)c1ccco1)C(=O)CCl` [Mometasone Furoate, 9α,21-dichloro-11β,17-dihydroxy-16α-methylpregna-1,4-diene-3,20-dione 17-(2-furoate)] here?
A: The metabolism was “primarily and extensively metabolized in the liver by the CYP3A4 isozyme”.

Q: And the “solubility in ethyl alcohol” value (ethyl alcohol)?
A: The value was “moderately soluble”.

Q: And the solubility in octanol (octanol)?
A: The solubility in octanol was “slightly soluble”.

Q: And the solubility in water (water)?
A: The solubility in water was “practically insoluble”.

Q: And the “Terminal t½” value ([1]; in vivo)?
A: The value was “about 5 h”.

Q: And the bioavailability ([1]; inhaled dose compared with IV administration)?
A: The bioavailability was “less than 1%”.

Q: And the “Excretion in the feces” value ([1]; up to 7 days)?
A: The value was 74%.

Q: What about the “Excretion in the urine” value ([1]; up to 7 days) of the same compound?
A: Its value is 8%.
